In the NIST ThermoML archive (doi:10.1016/j.fluid.2015.12.007):
± gives the expanded uncertainty stated by the source.

Test: xn = mol fraction of the nth substance listed
Conditions: 101 kPa, Liquid; for speed of sound: Sing-around technique in a fixed-path interferometer; for mass density: Vibrating tube method

CC(O)CO (stereo not given) [1,2-propanediol] + CCCC[n+]1ccn(C)c1.O=S(=O)([N-]S(=O)(=O)C(F)(F)F)C(F)(F)F
Conditions | mass density [kg/m3] | speed of sound [m/s]
293.15 K, x2 = 0.0606 | 1117.8 ± 0.17 | 1446.5 ± 1.3
293.15 K, x2 = 0.1118 | 1168.99 ± 0.2 | 1406.4 ± 1.3
293.15 K, x2 = 0.2003 | 1234.54 ± 0.23 | 1358.1 ± 1.3
293.15 K, x2 = 0.3056 | 1289.66 ± 0.25 | 1319.6 ± 1.2
293.15 K, x2 = 0.408 | 1328.41 ± 0.26 | 1294.8 ± 1.2
293.15 K, x2 = 0.4987 | 1355.11 ± 0.26 | 1279.5 ± 1.2
293.15 K, x2 = 0.602 | 1379.69 ± 0.24 | 1265.9 ± 1.2
293.15 K, x2 = 0.7047 | 1399.49 ± 0.23 | 1256.2 ± 1.2
293.15 K, x2 = 0.7945 | 1413.97 ± 0.23 | 1249.2 ± 1.2
293.15 K, x2 = 0.8971 | 1428 ± 0.23 | 1243.5 ± 1.2
298.15 K, x2 = 0.0606 | 1113.84 ± 0.17 | 1435.8 ± 1.3
298.15 K, x2 = 0.1118 | 1164.21 ± 0.2 | 1395.8 ± 1.3
298.15 K, x2 = 0.2003 | 1230.02 ± 0.23 | 1345.7 ± 1.3
298.15 K, x2 = 0.3056 | 1284.95 ± 0.25 | 1307.6 ± 1.2
298.15 K, x2 = 0.408 | 1323.62 ± 0.26 | 1283.1 ± 1.2
298.15 K, x2 = 0.4987 | 1350.28 ± 0.26 | 1268 ± 1.2
298.15 K, x2 = 0.602 | 1374.74 ± 0.24 | 1254.5 ± 1.2
298.15 K, x2 = 0.7047 | 1394.49 ± 0.23 | 1244.9 ± 1.2
298.15 K, x2 = 0.7945 | 1409 ± 0.23 | 1238 ± 1.2
298.15 K, x2 = 0.8971 | 1423.19 ± 0.22 | 1232.2 ± 1.2
303.15 K, x2 = 0.0606 | 1109.82 ± 0.17 | 1422.8 ± 1.3
303.15 K, x2 = 0.1118 | 1161.05 ± 0.19 | 1382.1 ± 1.3
303.15 K, x2 = 0.2003 | 1225.5 ± 0.23 | 1333.5 ± 1.3
303.15 K, x2 = 0.3056 | 1280.27 ± 0.25 | 1295.7 ± 1.2
303.15 K, x2 = 0.408 | 1318.85 ± 0.25 | 1271.4 ± 1.2
303.15 K, x2 = 0.4987 | 1345.27 ± 0.25 | 1256.6 ± 1.2
303.15 K, x2 = 0.602 | 1369.61 ± 0.23 | 1243.2 ± 1.2
303.15 K, x2 = 0.7047 | 1389.48 ± 0.23 | 1233.8 ± 1.2
303.15 K, x2 = 0.7945 | 1404.07 ± 0.22 | 1226.9 ± 1.2
303.15 K, x2 = 0.8971 | 1418.39 ± 0.22 | 1221.1 ± 1.2
308.15 K, x2 = 0.0606 | 1105.77 ± 0.17 | 1408.7 ± 1.3
308.15 K, x2 = 0.1118 | 1156.91 ± 0.19 | 1367.8 ± 1.3
308.15 K, x2 = 0.2003 | 1220.98 ± 0.22 | 1321.3 ± 1.2
308.15 K, x2 = 0.3056 | 1275.59 ± 0.24 | 1283.8 ± 1.2
308.15 K, x2 = 0.408 | 1314.09 ± 0.25 | 1259.9 ± 1.2
308.15 K, x2 = 0.4987 | 1340.46 ± 0.25 | 1245.3 ± 1.2
308.15 K, x2 = 0.602 | 1364.78 ± 0.23 | 1232 ± 1.2
308.15 K, x2 = 0.7047 | 1384.7 ± 0.23 | 1222.7 ± 1.2
308.15 K, x2 = 0.7945 | 1399.37 ± 0.22 | 1215.9 ± 1.2
308.15 K, x2 = 0.8971 | 1413.61 ± 0.22 | 1210.2 ± 1.2
313.15 K, x2 = 0.0606 | 1101.68 ± 0.17 | 1396.5 ± 1.3
313.15 K, x2 = 0.1118 | 1152.58 ± 0.19 | 1356.3 ± 1.3
313.15 K, x2 = 0.2003 | 1216.47 ± 0.22 | 1309.3 ± 1.2
313.15 K, x2 = 0.3056 | 1270.92 ± 0.24 | 1272.2 ± 1.2
313.15 K, x2 = 0.408 | 1309.33 ± 0.25 | 1248.6 ± 1.2
313.15 K, x2 = 0.4987 | 1335.67 ± 0.25 | 1234.1 ± 1.2
313.15 K, x2 = 0.602 | 1359.98 ± 0.23 | 1220.9 ± 1.2
313.15 K, x2 = 0.7047 | 1379.79 ± 0.22 | 1211.8 ± 1.2
313.15 K, x2 = 0.7945 | 1394.5 ± 0.22 | 1205 ± 1.2
313.15 K, x2 = 0.8971 | 1408.84 ± 0.22 | 1199.3 ± 1.2
318.15 K, x2 = 0.0606 | 1097.57 ± 0.16 | 1383.2 ± 1.3
318.15 K, x2 = 0.1118 | 1147.96 ± 0.19 | 1343.7 ± 1.3
318.15 K, x2 = 0.2003 | 1211.95 ± 0.23 | 1297.3 ± 1.2
318.15 K, x2 = 0.3056 | 1266.24 ± 0.24 | 1260.6 ± 1.2
318.15 K, x2 = 0.408 | 1304.59 ± 0.25 | 1237.3 ± 1.2
318.15 K, x2 = 0.4987 | 1330.88 ± 0.25 | 1223.1 ± 1.2
318.15 K, x2 = 0.602 | 1355.18 ± 0.23 | 1210.1 ± 1.2
318.15 K, x2 = 0.7047 | 1374.95 ± 0.22 | 1201 ± 1.2
318.15 K, x2 = 0.7945 | 1389.43 ± 0.22 | 1194.3 ± 1.2
318.15 K, x2 = 0.8971 | 1404.09 ± 0.22 | 1188.6 ± 1.2
